The text below walks through data of patent US20130143891A1, “Methods for Treating Methotrexate-Resistant Disorders with 10-Propargyl-10-Deazaaminopterin” (ALLOS THERAPEUTICS, INC., priority 2010, published 2013).

For series [1], the system named is DU-MTX cells. Nature of the series: Cytotoxicity in methotrexate-adapted DU145 cells. Format: cell-based, human. Here is the method:
(§1) All the data generated was the result of three separate experiments performed in duplicate. Cell viability was determined using the MTT assay, which was carried out as described previously (Hansen, 1989). Briefly, cells were seeded in 96-well plates at a density of 2×10^3 cells well^−1. Cells were incubated for 120 hours and then 0.4 mg ml^−1 of MTT dye (3-[4,5-dimethylthiazol-2-yl]-2,5-diphenyltetrazolium bromide was added for 4 hours at 37° C. The monolayer was suspended in 0.1 ml of DMSO and the absorbance at 560 nm was measured using a microplate reader. Positive and negative controls included wells with untreated cells or medium containing MTT with no cells, respectively. The conversion of yellow water-soluble tetrazolium MTT into purple insoluble formazan is catalyzed by mitochondrial dehydrogenases and is used to estimate the number of viable cells. The control value corresponding to untreated cells was taken as 100% and the viability of treated samples was expressed as a percentage of the control. IC50 values were determined as concentrations that reduced cell viability by 50%.
(§2) For single agent studies, cells were seeded and allowed to settle for 24 hours prior to treatment with increasing concentrations of 10-propargyl-10-deazaminopterin for 72 h. After incubation, the cells were allowed to recover in compound-free medium for 48 h, prior to determination of growth inhibition using the MTT assay.
To compare the mechanisms of 10-propargyl-10-deazaminopterin and methotrexate resistance, the cell lines DU-MTX and HEP-MTX were developed from parental DU145 and HEP2 cells by exposure to stepwise increasing concentrations of methotrexate.

In series [2] the test system is HEP2 head and neck cancer cell line. Nature of the series: MTT cell cytotoxicity assay, HEP2. Format: cell-based, human. As to conditions: 72 h exposure, read-out: Cytotoxicity (IC50s). Here is the method: (§3) A panel of colon (HT29, HCT116, COLO205, HCC2998), breast (MCF7, MDA-MB-435), lung (HOP62, HOP92), ovarian (OVCAR3, IGROV1), prostate (DU145, PC3), and head and neck (SCC61, HEP2, SQ20B) human cancer cell lines was purchased from the ATCC (Rockville, Md.) and National Cancer Institute collections. […] All the data generated was the result of three separate experiments performed in duplicate. Cell viability was determined using the MTT assay, which was carried out as described previously (Hansen, 1989). Briefly, cells were seeded in 96-well plates at a density of 2×10^3 cells well^−1. […] The monolayer was suspended in 0.1 ml of DMSO and the absorbance at 560 nm was measured using a microplate reader. Positive and negative controls included wells with untreated cells or medium containing MTT with no cells, respectively. The conversion of yellow water-soluble tetrazolium MTT into purple insoluble formazan is catalyzed by mitochondrial dehydrogenases and is used to estimate the number of viable cells.
For orientation: Tetrazolium dyes change colour on reduction, which living cells bring about.

For series [3], the system named is HEP-PDX cells. In words: Cytotoxicity in 10-propargyl-10-deazaminopterin-adapted HEP2 cells. Format: cell-based, human. On the procedure:
as §1, §2
(§4) To characterize the predictive factors of 10-propargyl-10-deazaminopterin antiproliferative effects, the cell lines DU-PDX and HEP-PDX were developed from parental DU145 and HEP2 cells, respectively, by exposure to stepwise increasing concentrations of 10-propargyl-10-deazaminopterin over a period of 6 months.

The test system of series [4] is COLO205 colon cancer cell line. Nature of the series: MTT cell cytotoxicity assay, COLO205. Format: cell-based, human. Conditions: 72 h exposure, read-out: Cytotoxicity (IC50s). Here is the method:
as §3

Series [5] relates to DHFR. In words: Western blot of DHFR protein expression. Format: cell-based, human. Here is the method: Cells were lysed in buffer containing 50 mM HEPES (pH 7.6), 150 mM NaCl, 1% Triton X-100, 2 mM sodium vanadate, 100 mM NaF, and 0.4 mg·ml^−1 phenylmethylsulfonyl fluoride. Equal amounts of protein (20-50 μg/lane) were subjected to SDS-PAGE and transferred to nitrocellulose membranes. Membranes were probed with anti-cleaved PARP, anti-cleaved caspase 3, anti-caspase 9 (Cell Signaling, Saint Quentin Yvelines, France), anti-DHFR (Abcam, France), anti-β-actin (Sigma Aldrich, Saint-Quentin Fallavier, France) specific primary antibodies followed by peroxidase-linked secondary antibodies and visualization by chemiluminescence.
For orientation: In western blotting, separated proteins are transferred to a membrane and probed.

Series [6] relates to 15 human solid tumor cell lines. In words: Cytotoxicity across panel of 15 human solid tumor cell lines. Format: cell-based. On the procedure: A panel of colon (HT29, HCT116, COLO205, HCC2998), breast (MCF7, MDA-MB-435), lung (HOP62, HOP92), ovarian (OVCAR3, IGROV1), prostate (DU145, PC3), and head and neck (SCC61, HEP2, SQ20B) human cancer cell lines was purchased from the ATCC (Rockville, Md.) and National Cancer Institute collections. Cells were grown as monolayers in RPMI medium supplemented with 10% fetal calf serum, 2 mM glutamine, 100 units ml^−1 penicillin and […] streptomycin.
as §1, §2

Series [7] concerns DU-PDX cells. Nature of the series: Cytotoxicity in 10-propargyl-10-deazaminopterin-adapted DU145 cells. Format: cell-based, human. Here is the method: as §1, §2, §4
Series [8] deals with DU145 prostate cancer cell line. In words: MTT cell cytotoxicity assay, DU145. Format: cell-based, human. Conditions: naïve/parental, 72 h exposure, read-out: Cytotoxicity (IC50s). On the procedure: as §3
Series [9] relates to IGROV1 ovarian cancer cell line. Nature of the series: MTT cell cytotoxicity assay, IGROV1. Format: cell-based, human. Conditions: 72 h exposure, read-out: Cytotoxicity (IC50s). Here is the method:
as §3

In series [10] the test system is SCC61 head and neck cancer cell line. Nature of the series: MTT cell cytotoxicity assay, SCC61. Format: cell-based, human. As to conditions: 72 h exposure, read-out: Cytotoxicity (IC50s). On the procedure: as §3
In series [11] the test system is OVCAR3 ovarian cancer cell line. In words: MTT cell cytotoxicity assay, OVCAR3. Format: cell-based, human. As to conditions: 72 h exposure, read-out: Cytotoxicity (IC50s). On the procedure:
as §3

Series [12] relates to SQ20B head and neck cancer cell line. Nature of the series: MTT cell cytotoxicity assay, SQ20B. Format: cell-based, human. Conditions: 72 h exposure, read-out: Cytotoxicity (IC50s). Here is the method: as §3
Series [13] concerns HOP92 NSCLC cell line. Nature of the series: MTT cell cytotoxicity assay, HOP92. Format: cell-based, human. As to conditions: 72 h exposure, read-out: Cytotoxicity (IC50s). On the procedure: as §3
Series [14] deals with HOP62 NSCLC cell line. In words: MTT cell cytotoxicity assay, HOP62. Format: cell-based, human. Conditions: 72 h exposure, read-out: Cytotoxicity (IC50s). Here is the method: as §3
In series [15] the test system is PC3 prostate cancer cell line. In words: MTT cell cytotoxicity assay, PC3. As to conditions: 72 h exposure, read-out: Cytotoxicity (IC50s). Format: cell-based, human. On the procedure:
as §3

The subject of series [16] is HT29 colon cancer cell line. In words: MTT cell cytotoxicity assay, HT29. Format: cell-based, human. Conditions: 72 h exposure, read-out: Cytotoxicity (IC50s). On the procedure: as §3
Series [17] concerns HCC2998 colon cancer cell line. In words: MTT cell cytotoxicity assay, HCC2998. Conditions: 72 h exposure, read-out: Cytotoxicity (IC50s). Format: cell-based, human. On the procedure: as §3
For series [18], the system named is MCF7 breast cancer cell line. Nature of the series: MTT cell cytotoxicity assay, MCF7. Format: cell-based, human. Conditions: 72 h exposure, read-out: Cytotoxicity (IC50s). On the procedure: as §3
Series [19] deals with MDA-MB-435 melanoma cell line. Nature of the series: MTT cell cytotoxicity assay, MDA-MB-435. Format: cell-based, human. Conditions: MDA-MB-435 (melanoma; MDA435 in table), 72 h exposure, read-out: Cytotoxicity (IC50s). Here is the method:
as §3

Series [20] relates to HCT116 colon cancer cell line. Nature of the series: MTT cell cytotoxicity assay, HCT116. Format: cell-based, human. Conditions: 72 h exposure, read-out: Cytotoxicity (IC50s). On the procedure: as §3

pIC50: −log10 of the molar value. Read-outs that look alike come from different tables or passages of the source. Some results are limits rather than exact numbers.

As for `C#CCC(Cc1cnc2nc(N)nc(N)c2n1)c1ccc(C(=O)N[C@@H](CCC(=O)O)C(=O)O)cc1` (mixture of isomers) [Pralatrexate, (2S)-2-[[4-[(1RS)-1-[(2,4-diaminopteridin-6-yl)methyl]but-3-ynyl]benzoyl]amino]pentanedioic acid], the “IC50 lower than that of methotrexate” value in series [1] (DU-MTX cells) is on record as “approximately 10 fold”. For the same compound, the pIC50 in series [1] (Homo sapiens, DU-145, DU-MTX cells (FIG. 3), read-out: IC50 for the methotrexate adapted DU-145 cell lines) is 7.70; in series [2], 7.30; in [2] (Homo sapiens, HEp-2, 72 h) it was more than 7.00; in series [4], 5.05; in [4] (Homo sapiens, COLO 205, 72 h), not above 5.05; in series [6] (6 of the 15 human cancer cell lines, read-out: IC50 in the 6 relatively resistant of 15 cell lines), less than 5.05. For the same compound, the pIC50 in series [6] (nine of the 15 human cancer cell lines, read-out: IC50 in the nine sensitive of 15 cell lines) was more than 7.00; in series [8] (listed as 10-propargyl-10-deazaminopterin), 8.00; in [9], 7.10; in series [9] (Homo sapiens, IGROV-1, 72 h) it was more than 7.00. The “less sensitive (resistant) than parental cells” value in series [3] (HEP-PDX versus parental HEP2) and in series [7] (DU-PDX versus parental DU145) was “more than 200 fold” in each case. Further, the “change in cytotoxicity with and without verapamil and cyclosporine A” value in series [3] (HEP-PDX, 30 μM verapamil and 3 μM cyclosporin A concomitantly for 72 hours) was “No changes were observed”; in series [7] (DU-PDX, 30 μM verapamil and 3 μM cyclosporin A concomitantly for 72 hours), “No changes were observed”. Further, the “DHFR protein expression after prolonged exposure” value in [5] (6 months exposure, HEP-PDX cells) is on record as “not after prolonged (6 months) exposure”. Further, the “DHFR protein expression after short exposure” value in series [5] (24 hour exposure (FIG. 6)) is “slightly increased”. In addition, the “IC50s on average lower than those observed for methotrexate” value in series [6] (average over the panel) is recorded as approximately 10 fold.

Regarding `O=c1[nH]cc(F)c(=O)[nH]1` [5-FU, 5-fluorouracil], the pIC50 in [10] (Homo sapiens, 72 h) was 5.92; in series [11] (Homo sapiens, OVCAR-3, 72 h) it was 4.51; in [12] (Homo sapiens, SQ20B, 72 h), 5.00; in series [13] (Homo sapiens, HOP-92, 72 h), 4.74; in series [2] (Homo sapiens, HEp-2, 72 h), 4.07; in [14] (Homo sapiens, HOP-62, 72 h), 4.11. The pIC50 in series [4] (Homo sapiens, COLO 205, 72 h) was 6.10; in series [15] (Homo sapiens, 72 h), 5.82; in series [16] (Homo sapiens, HT-29, 72 h), 5.52; in series [17] (Homo sapiens, HCC 2998, 72 h), 5.00; in [18] (Homo sapiens, MCF7, 72 h) it was 5.89; in series [8] (Homo sapiens, DU-145, 72 h), 5.15. The pIC50 in series [19] (Homo sapiens, MDA-MB-435, 72 h) is 5.30; in series [20] (Homo sapiens, HCT-116, 72 h), 5.00; in [9] (Homo sapiens, IGROV-1, 72 h) it was 5.10. The “cross-resistance: cytotoxicity in HEP-PDX compared with parental HEP2” value in series [3] (HEP-PDX cells, 72 h exposure for pemetrexed and 5-FU) was “No significant difference”. Further, the “cross-resistance: cytotoxicity in DU-PDX compared with parental DU145” value in [7] (DU-PDX cells, 72 h exposure for pemetrexed and 5-FU) is “No significant difference”.

Take `C[C@H]1O[C@@H](n2cc(F)c(=O)[nH]c2=O)[C@H](O)[C@@H]1O` [5′-DFUR]: the pIC50 in [10] was 5.49; in [11] it was 3.64; in series [12] it was 4.57; in [13], 3.87; in series [2] it was 3.60; in series [14], 3.42. Further, the pIC50 was 5.41 in [4]; 4.60 in [15]; 4.80 in [16]; 4.47 in [17]; 5.11 in series [18]; 4.55 in [8]. The pIC50 was 4.48 in series [19], 4.35 in [20] and 4.54 in series [9].

Take `Nc1nc2[nH]cc(CCc3ccc(C(=O)N[C@@H](CCC(=O)O)C(=O)O)cc3)c2c(=O)[nH]1` [Pemetrexed, pemetrexed]: the pIC50 in series [10] (Homo sapiens, 72 h) was 7.82; in series [11] (Homo sapiens, OVCAR-3, 72 h), 7.60; in series [12] (Homo sapiens, SQ20B, 72 h), 7.60; in series [13] (Homo sapiens, HOP-92, 72 h), 7.70; in series [2] (Homo sapiens, HEp-2, 72 h), 7.00; in [14] (Homo sapiens, HOP-62, 72 h) it was 7.54. Also, the pIC50 was 7.62 in series [4] (Homo sapiens, COLO 205, 72 h); 5.57 in series [15] (Homo sapiens, 72 h); 7.64 in [16] (Homo sapiens, HT-29, 72 h); 5.82 in series [17] (Homo sapiens, HCC 2998, 72 h); 7.66 in series [18] (Homo sapiens, MCF7, 72 h); 7.32 in series [8] (Homo sapiens, DU-145, 72 h). The pIC50 in [19] (Homo sapiens, MDA-MB-435, 72 h) is 3.52; in series [20] (Homo sapiens, HCT-116, 72 h) it was 3.46; in [9] (Homo sapiens, IGROV-1, 72 h), 3.52. For the same compound, the “cross-resistance: cytotoxicity in HEP-PDX compared with parental HEP2” value in [3] is listed as “only slightly less cytotoxic”. Moreover, the “cross-resistance: cytotoxicity in DU-PDX compared with parental DU145” value in [7] is “only slightly less cytotoxic”.
